Reference: patent publication US20080075662A1, “Novel Method for Analyzing Nucleic Acid Et Use Thereof for Evaluating the Degree of Mrna Editing of the Serotonin 5-Ht2c Receptor” (priority 2002, published 2008)
[I] = hypoxanthine (inosine)

System: oligonucleotide complementary to the probe with the exception of the base complementary to the dI at position 15
Test: Specificity of the array of probes: hybridization with a single-mismatch oligonucleotide
Format: binding

In the case of “d(CAITICGTIITCCTITT) (DNA CANTNCGTNNTCCTNTT; DNA, [I] at 3, 5, 9, 10, 15, backbone not given here) [SEQ ID No. 32]”, the “hybridization with mismatched oligonucleotide” value (at the hybridization temperature chosen for all probes (between 61.1 and 54.13° C., preferably about 57.6° C.)) is reported as “does not hybridize” and the Tm (duplex with oligonucleotide mismatched opposite the dI at position 15 of the probe) is reported as 49.4 °C.
